The experiment deals with T1, integrin VLA-4, expressed on the Jurkat J6 (human lymphoblast cell line) cell membrane with VCAM-1 (Homo sapiens, UniProt P05556+P13612).
T1 construct: integrin VLA-4, expressed on the Jurkat J6 (human lymphoblast cell line) cell membrane; endogenous in cells; host or cells: Jurkat J6 cells (integrin). zzVCAM-1 was made in house in Drosophila melanogaster S2 cells
T1 sequence (P13612 34-1032): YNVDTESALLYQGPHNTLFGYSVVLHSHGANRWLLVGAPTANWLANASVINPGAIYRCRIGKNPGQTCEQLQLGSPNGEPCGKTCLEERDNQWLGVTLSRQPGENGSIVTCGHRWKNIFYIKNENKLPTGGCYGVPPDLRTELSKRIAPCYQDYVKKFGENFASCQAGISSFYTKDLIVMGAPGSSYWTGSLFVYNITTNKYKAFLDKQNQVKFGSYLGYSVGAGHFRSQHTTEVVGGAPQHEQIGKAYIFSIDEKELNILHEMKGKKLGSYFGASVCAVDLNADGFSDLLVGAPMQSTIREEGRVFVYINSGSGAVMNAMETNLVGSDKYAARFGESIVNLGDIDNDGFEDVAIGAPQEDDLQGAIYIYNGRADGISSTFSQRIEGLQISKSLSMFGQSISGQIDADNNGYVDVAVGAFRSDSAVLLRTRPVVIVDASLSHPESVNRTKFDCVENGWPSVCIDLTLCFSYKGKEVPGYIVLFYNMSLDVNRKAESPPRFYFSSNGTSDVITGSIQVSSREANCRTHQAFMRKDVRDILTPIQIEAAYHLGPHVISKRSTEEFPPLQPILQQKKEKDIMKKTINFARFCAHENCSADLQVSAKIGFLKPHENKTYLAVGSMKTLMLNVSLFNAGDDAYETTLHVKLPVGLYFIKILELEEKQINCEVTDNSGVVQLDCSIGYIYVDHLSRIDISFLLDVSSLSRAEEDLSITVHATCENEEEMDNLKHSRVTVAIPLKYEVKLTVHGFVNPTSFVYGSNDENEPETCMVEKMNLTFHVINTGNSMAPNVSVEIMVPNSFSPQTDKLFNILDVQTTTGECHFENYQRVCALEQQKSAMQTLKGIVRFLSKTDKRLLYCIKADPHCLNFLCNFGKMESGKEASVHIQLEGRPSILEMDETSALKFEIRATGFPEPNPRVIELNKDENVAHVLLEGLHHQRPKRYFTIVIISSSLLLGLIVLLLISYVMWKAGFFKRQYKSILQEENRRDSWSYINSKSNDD
T1 sequence (P05556 21-798): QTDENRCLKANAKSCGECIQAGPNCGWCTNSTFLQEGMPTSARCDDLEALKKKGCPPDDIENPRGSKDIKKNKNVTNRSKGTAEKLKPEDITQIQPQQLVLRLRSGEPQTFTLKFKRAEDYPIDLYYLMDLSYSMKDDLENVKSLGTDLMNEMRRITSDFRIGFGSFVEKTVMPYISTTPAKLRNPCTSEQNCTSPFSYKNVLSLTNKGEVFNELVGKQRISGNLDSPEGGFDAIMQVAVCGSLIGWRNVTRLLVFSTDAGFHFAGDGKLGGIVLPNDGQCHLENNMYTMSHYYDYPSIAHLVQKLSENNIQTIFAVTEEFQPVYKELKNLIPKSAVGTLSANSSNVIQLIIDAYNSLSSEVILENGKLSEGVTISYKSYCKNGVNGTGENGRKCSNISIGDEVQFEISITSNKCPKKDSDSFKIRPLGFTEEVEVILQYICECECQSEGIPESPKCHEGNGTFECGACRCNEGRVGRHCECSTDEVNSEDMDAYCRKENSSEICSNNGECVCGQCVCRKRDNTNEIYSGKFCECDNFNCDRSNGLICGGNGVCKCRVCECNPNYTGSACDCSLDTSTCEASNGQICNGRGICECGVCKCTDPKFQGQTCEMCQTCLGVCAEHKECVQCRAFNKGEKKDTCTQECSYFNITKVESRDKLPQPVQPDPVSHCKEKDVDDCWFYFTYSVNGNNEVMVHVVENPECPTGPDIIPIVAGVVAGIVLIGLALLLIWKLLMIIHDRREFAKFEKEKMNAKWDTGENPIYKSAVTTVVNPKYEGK
Kind of experiment: Jurkat J6/VCAM-1 adhesion assay. Type of experiment: cell-based. Conditions: Jurkat J6 cell adhesion to VCAM-1, 1 mM MnCl2; mean of n experiments. On the procedure:
(1) Jurkat J6/VCAM-1 Adhesion Assay
This assay was used to investigate the interaction of the integrin VLA-4, expressed on the Jurkat J6 (human lymphoblast cell line) cell membrane with VCAM-1. Polystyrene 96-well microtitre plates were coated with human immunoglobulin G (IgG; Sigma Chemicals, UK, Product No. 14506) at a concentration of 0.05 mg ml^−1 in bicarbonate buffer (36 mM NaHCO3 and 22 mM Na2CO3, prepared in Dulbecco's phosphate buffered saline at pH 9.8 (PBS); Sigma Chemicals, UK, Product No. 14190-094) for 2 hours at 37° C. This solution was then aspirated and the plates were washed twice with PBS.
VCAM-1 was prepared by cloning its constituent seven domains into a Drosophila expression system with a zz (Protein A) tag. This zzVCAM-1 was then expressed from Drosophila melanogaster S2 cell culture, induced with copper. Protease inhibitors were added and the culture supernatant was clarified either by filtration through a 0.2 μm filter or by centrifugation. The zzVCAM-1 was then purified from this clarified medium using an IgG agarose column, equilibrated with either 20 mM sodium phosphate pH 7.2 alone or in the presence of 0.5M sodium chloride. Elution of zzVCAM-1 from the column was mediated using 3M ammonium thiocyanate, which was subsequently removed using a G25 desalting column, equilibrated with 20 mM sodium phosphate, pH 7.2. The purified zzVCAM-1 was then concentrated to a small volume (Amicon stirred cell concentrators) until a concentration of 62.5 ng ml^−1 was obtained, calculated using the extinction coefficient value.
This solution of zzVCAM-1 was then incubated overnight at 4° C. in the IgG coated microtitre plates with 3% bovine serum albumin (BSA) in PBS, followed by aspiration and two further washes with PBS. A concentration of the Jurkat J6 cells (6×10^6 cels ml^−1), grown in cell media RPMI 1640 (HyClone Ltd, Product No. B-9106-L) supplemented with 10% heat inactivated fetal calf serum (FCS; Gibco BRL, Product No. 10099-075) and 2 mM L-glutamine, were labelled with 10 μM of the fluorescent dye, 2′, 7′-bis(2-carboxyethyl)-5-(e6)-carboxyfluorescein acetoxymethyl ester (BCECF-AM; Molecular Probes Inc, Product No. B-1150) at 37° C. for 10 minutes. The excess dye was then removed by centrifugation at 500×g for 5 minutes and the cells were resuspended at a concentration of 1.2×10^7 cells ml^−1 in Hank's balanced salt solution (HBSS; Gibco BRL, Product No. 14190-094).
Equal volumes of compounds (dissolved in an appropriate solvent and diluted in HBSS containing 1 mM MnCl2) and the labelled Jurkat J6 cells, were added to the VCAM-1 coated plates and adhesion was allowed to proceed for 30 minutes at 37° C. Non, or loosely adhered cells, were removed by inversion of the plate and blotted with tissue paper. Two washes with PBS and further blotting were then performed, before the addition of 2% detergent (Triton-X®; Sigma Chemicals UK, Product No. X100). Counting was undertaken in a Wallac Viktor™ Fluorimeter, where low fluorescence values were indicative of compounds which had inhibited adhesion. All samples were assayed in singlicate and the following four parameter curve fit, shown by Equation (I) was applied: [formula]
Where a is the minimum, b is the Hill slope, c is the IC50 and d is the maximum. (Maximum and minimum values are those compared to adhesion in the absence of compound and in the presence of the dipotassium salt of 2 mM EDTA; Sigma Chemicals, UK, Product No. ED2P). Data is presented as the mean pIC50 with the standard error of the mean of n experiments.
`CC(C)C[C@H](NC(=O)COc1ccc(Cl)cc1Cl)C(=O)N[C@@H](Cc1ccc(OC(=O)N2CCOCC2)cc1)C(=O)O` [Example 35, (2S)-2-[((2S)-2-{[2-(2,4-Dichlorophenoxy)acetyl]amino}-4-methylpentanoyl)amino]-3-{4-[(4-morpholinylcarbonyl)oxy]phenyl}propanoic acid] showed an IC50 of 6.61 nM.

Turning to `CC(C)C[C@H](NC(=O)COc1ccccc1C1CCCCC1)C(=O)N[C@@H](Cc1ccc(OC(=O)N2CCC(NC(=O)Cc3ccccc3)CC2)cc1)C(=O)O` [Example 55, (2S)-2-[((2S)-2-{[2-(2-Cyclohexylphenoxy)acetyl]amino}-4-methylpentanoyl)amino]-3-{4-[({4-[(2-phenylacetyl)amino]-1-piperidinyl}carbonyl)oxy]phenyl}propanoic acid], the midpoint of inhibition, the IC50, lay at 61.7 nM.

Turning to `CC(C)C[C@H](NC(=O)COc1ccccc1C(C)(C)C)C(=O)N[C@@H](Cc1ccc(OC(=O)N2CCC(NC(=O)Cc3ccc(Cl)cc3)CC2)cc1)C(=O)O` [Example 48, (2S)-2-{[(2S)-2-({2-[2-(Tert-butyl)phenoxy]acetyl}amino)-4-methylpentanoyl]amino}-3-(4-{[(4-{[2-(4-chlorophenyl)acetyl]amino}-1-piperidinyl)carbonyl]oxy}phenyl)propanoic acid], the IC50 is 41.7 nM. The figure for `CC(C)C[C@H](NC(=O)COc1ccc2ccccc2c1Br)C(=O)N[C@@H](Cc1ccc(OC(=O)N2CCC(C(=O)N3CCCCC3)CC2)cc1)C(=O)O` [Example 32, (2S)-2-{[(2S)-2-({2-[(1-Bromo-2-naphthyl)oxy]acetyl}amino)-4-methylpentanoyl]amino}-3-[4-({[4-(1-piperidinylcarbonyl)-1-piperidinyl]carbonyl}oxy)phenyl]propanoic acid] is 24 nM; for `CC(C)C[C@H](NC(=O)COc1ccc(C(=O)N2CCCCC2)cc1)C(=O)N[C@@H](Cc1ccc(OC(=O)N2CCOCC2)cc1)C(=O)O` [Example 4, (2S)-2-{[(2S)-4-Methyl-2-({2-[4-(1-piperidinylcarbonyl)phenoxy]acetyl}amino)pentanoyl]amino}-3-{4-[(4-morpholinylcarbonyl)oxy]phenyl}propanoic acid] it is 16.6 nM; for `CC(C)C[C@H](NC(=O)COc1ccc2ccccc2c1Br)C(=O)N[C@@H](Cc1ccc(OC(=O)N2CCOCC2)cc1)C(=O)O` [Example 38, (2S)-2-{[(2S)-2-({2-[(1-Bromo-2-naphthyl)oxy]acetyl}amino)-4-methylpentanoyl]amino}-3-{4-[(4-morpholinylcarbonyl)oxy]phenyl}propanoic acid] it is 15.5 nM. The value for `CC(C)C[C@H](NC(=O)COc1ccccc1C(=O)c1ccccc1)C(=O)N[C@@H](Cc1ccc(OC(=O)N2CCC(C(N)=O)CC2)cc1)C(=O)O` [Example 6, (2S)-3-[4-({[4-(Aminocarbonyl)-1-piperidinyl]carbonyl}oxy)phenyl]-2-[((2S)-2-{[2-(2-benzoylphenoxy)acetyl]amino}-4-methylpentanoyl)amino]propanoic acid] was 5.62 nM. The value for `CC(C)C[C@H](NC(=O)c1cccc2c1oc1ccccc12)C(=O)N[C@@H](Cc1ccc(OC(=O)N2CCC(C(=O)N3CCCCC3)CC2)cc1)C(=O)O` [Example 31, (2S)-2-({(2S)-2-[(Dibenzo[b,d]furan-4-ylcarbonyl)amino]-4-methylpentanoyl}amino)-3-[4-({[4-(1-piperidinylcarbonyl)-1-piperidinyl]carbonyl}oxy)phenyl]propanoic acid] was 25.7 nM; that for `CC(C)C[C@H](NC(=O)COc1ccccc1C1CCCCC1)C(=O)N[C@@H](Cc1ccc(OC(=O)N2CCC(NC(=O)Cc3ccc(Cl)cc3)CC2)cc1)C(=O)O` [Example 45, (2S)-3-(4-{[(4-{[2-(4-Chlorophenyl)acetyl]amino}-1-piperidinyl)carbonyl]oxy}phenyl)-2-[((2S)-2-{[2-(2-cyclohexylphenoxy)acetyl]amino}-4-methylpentanoyl)amino]propanoic acid] was 57.5 nM; that for `CC(C)C[C@H](NC(=O)COc1cc2ccccc2cc1C(=O)N1CCCCC1)C(=O)N[C@@H](Cc1ccc(OC(=O)N2CCC(NC(=O)Cc3ccc(Cl)cc3)CC2)cc1)C(=O)O` [Example 50, (2S)-3-(4-{[(4-{[2-(4-Chlorophenyl)acetyl]amino}-1-piperidinyl)carbonyl]oxy}phenyl)-2-({(2S)-4-methyl-2-[(2-{[3-(1-piperidinylcarbonyl)-2-naphthyl]oxy}acetyl)amino]pentanoyl}amino)propanoic acid] was 25.1 nM.

For `CC(C)C[C@H](NC(=O)COc1ccccc1I)C(=O)N[C@@H](Cc1ccc(OC(=O)N2CCC(NC(=O)C(C3CCCCC3)C3CCCCC3)CC2)cc1)C(=O)O` [Example 9, (2S)-3-{4-[({4-[(2,2-Dicyclohexylacetyl)amino]-1-piperidinyl}carbonyl)oxy]phenyl}-2-[((2S)-2-{[2-(2-iodophenoxy)acetyl]amino}-4-methylpentanoyl)amino]propanoic acid], half-maximal inhibition (IC50) was put at 26.3 nM.

The compound `CC(C)C[C@H](NC(=O)COc1ccccc1C(=O)c1ccccc1)C(=O)N[C@@H](Cc1ccc(OC(=O)N2CCOCC2)cc1)C(=O)O` [Example 36, (2S)-2-[((2S)-2-{[2-(2-Benzoylphenoxy)acetyl]amino}-4-methylpentanoyl)amino]-3-{4-[(4-morpholinylcarbonyl)oxy]phenyl}propanoic acid] had an IC50 of 12.3 nM.

The compound `CC(=O)N1CCN(C(=O)Oc2ccc(C[C@H](NC(=O)[C@H](CC(C)C)NC(=O)COc3ccccc3I)C(=O)O)cc2)CC1` [Example 15, (2S)-3-(4-{[(4-Acetyl-1-piperazinyl)carbonyl]oxy}phenyl)-2-[((2S)-2-{[2-(2-iodophenoxy)acetyl]amino}-4-methylpentanoyl)amino]propanoic acid] showed an IC50 of 2.69 nM.

In the case of `CC(C)C[C@H](NC(=O)COc1ccc(C(=O)N2CCCCC2)cc1)C(=O)N[C@@H](Cc1ccc(OC(=O)N2CCC(C(N)=O)CC2)cc1)C(=O)O` [Example 5, (2S)-3-[4-({[4-(Aminocarbonyl)-1-piperidinyl]carbonyl}oxy)phenyl]-2-{[(2S)-4-methyl-2-({2-[4-(1-piperidinylcarbonyl)phenoxy]acetyl}amino)pentanoyl]amino}propanoic acid], it took 7.76 nM to reach half-maximal inhibition (IC50). Compound `CC(C)C[C@H](NC(=O)COc1ccccc1I)C(=O)N[C@@H](Cc1ccc(OC(=O)N2CCC(NC(=O)Cc3ccc(Cl)cc3)CC2)cc1)C(=O)O` [Example 47, (2S)-3-(4-{[(4-{[2-(4-Chlorophenyl)acetyl]amino}-1-piperidinyl)carbonyl]oxy}phenyl)-2-[((2S)-2-{[2-(2-iodophenoxy)acetyl]amino}-4-methylpentanoyl)amino]propanoic acid] gave an IC50 of 33.1 nM. In turn, `CC(C)C[C@H](NC(=O)COc1ccccc1C(C)(C)C)C(=O)N[C@@H](Cc1ccc(OC(=O)N2CCC(NC(=O)C(C3CCCCC3)C3CCCCC3)CC2)cc1)C(=O)O` [Example 53, (2S)-2-{[(2S)-2-({2-[2-(Tert-butyl)phenoxy]acetyl}amino)-4-methylpentanoyl]amino}-3-{4-[({4-[(2,2-dicyclohexylacetyl)amino]-1-piperidinyl}carbonyl)oxy]phenyl}propanoic acid] had an IC50 of 155 nM. The figure for `Cc1ccccc1OCC(=O)N[C@@H](CC(C)C)C(=O)N[C@@H](Cc1ccc(OC(=O)N2CCC(NC(=O)Cc3ccccc3)CC2)cc1)C(=O)O` [Example 54, (2S)-2-[((2S)-4-Methyl-2-{[2-(2-methylphenoxy)acetyl]amino}pentanoyl)amino]-3-{4-[({4-[(2-phenylacetyl)amino]-1-piperidinyl}carbonyl)oxy]phenyl}propanoic acid] is 5.62 nM.

For the origin of these results see patent publication US6867192B1, “Compounds useful in the treatment of inflammatory diseases” (priority 1998, dated 2005).
